# Experimental data from ChEMBL document CHEMBL1201862, “PubChem BioAssay data set” (2004).
# The source made the active and inactive calls.
# Tests used:
# [1] = target: T1, Lysine-specific demethylase 4C (Homo sapiens, UniProt Q9H3R0); assay: inhibition of JMJD2C H3K9me3 demethylation – biochemical, DELFIA europium, cherry-picked samples, dose response (AID 488835); format: functional
# T1 sequence (Q9H3R0 whole entry): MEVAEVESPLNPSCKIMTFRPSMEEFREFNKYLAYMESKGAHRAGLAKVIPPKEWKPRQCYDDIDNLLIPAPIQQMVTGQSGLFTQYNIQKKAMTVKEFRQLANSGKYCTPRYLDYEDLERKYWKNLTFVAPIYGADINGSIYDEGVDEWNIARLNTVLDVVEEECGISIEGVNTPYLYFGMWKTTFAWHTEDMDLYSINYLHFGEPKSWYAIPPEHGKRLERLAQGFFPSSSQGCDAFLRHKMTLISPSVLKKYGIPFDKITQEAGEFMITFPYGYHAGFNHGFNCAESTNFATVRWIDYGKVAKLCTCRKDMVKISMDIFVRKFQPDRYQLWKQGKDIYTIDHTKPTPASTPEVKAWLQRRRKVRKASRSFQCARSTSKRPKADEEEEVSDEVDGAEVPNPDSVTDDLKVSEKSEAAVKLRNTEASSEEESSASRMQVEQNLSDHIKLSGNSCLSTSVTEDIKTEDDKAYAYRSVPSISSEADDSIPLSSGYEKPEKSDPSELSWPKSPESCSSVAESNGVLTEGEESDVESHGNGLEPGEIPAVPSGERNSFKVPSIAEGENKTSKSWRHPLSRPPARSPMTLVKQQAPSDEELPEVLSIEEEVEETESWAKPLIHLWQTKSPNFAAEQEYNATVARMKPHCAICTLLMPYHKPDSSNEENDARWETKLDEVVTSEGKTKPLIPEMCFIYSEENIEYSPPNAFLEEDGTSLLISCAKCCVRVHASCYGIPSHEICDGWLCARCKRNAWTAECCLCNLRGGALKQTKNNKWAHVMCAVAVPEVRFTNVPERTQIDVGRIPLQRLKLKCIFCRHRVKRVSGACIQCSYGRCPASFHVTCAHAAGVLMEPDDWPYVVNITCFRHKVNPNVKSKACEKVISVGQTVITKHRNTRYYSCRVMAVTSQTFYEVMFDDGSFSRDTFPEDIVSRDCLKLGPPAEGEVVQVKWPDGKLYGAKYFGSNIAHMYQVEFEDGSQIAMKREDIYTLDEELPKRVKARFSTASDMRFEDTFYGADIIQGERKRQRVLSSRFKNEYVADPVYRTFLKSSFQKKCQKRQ
# Large T antigen = Large T antigen (Simian virus 40, UniProt P03070); format: functional, Betapolyomavirus macacae;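 note: Confirmatory-stage PubChem screen for compounds that inhibit SV40 T antigen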
# Chain of Large T antigen (P03070 whole entry): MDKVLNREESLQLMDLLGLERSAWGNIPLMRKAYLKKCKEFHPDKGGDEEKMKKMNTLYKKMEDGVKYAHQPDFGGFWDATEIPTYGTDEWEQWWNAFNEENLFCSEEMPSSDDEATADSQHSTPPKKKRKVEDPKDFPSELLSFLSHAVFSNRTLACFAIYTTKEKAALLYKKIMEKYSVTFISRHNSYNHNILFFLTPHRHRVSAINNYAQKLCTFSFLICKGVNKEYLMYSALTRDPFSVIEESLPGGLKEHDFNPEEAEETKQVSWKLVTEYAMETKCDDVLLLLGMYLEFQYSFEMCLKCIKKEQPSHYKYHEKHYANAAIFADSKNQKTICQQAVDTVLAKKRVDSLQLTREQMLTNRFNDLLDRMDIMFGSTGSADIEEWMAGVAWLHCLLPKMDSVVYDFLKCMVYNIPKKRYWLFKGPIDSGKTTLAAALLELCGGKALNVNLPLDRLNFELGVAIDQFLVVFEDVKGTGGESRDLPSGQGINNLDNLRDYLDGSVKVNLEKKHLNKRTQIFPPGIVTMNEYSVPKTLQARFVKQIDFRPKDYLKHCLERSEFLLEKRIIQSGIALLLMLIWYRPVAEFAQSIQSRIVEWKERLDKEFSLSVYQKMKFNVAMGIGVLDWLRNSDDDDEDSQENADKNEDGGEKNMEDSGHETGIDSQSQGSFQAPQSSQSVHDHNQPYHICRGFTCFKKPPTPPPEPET
# Leucine aminopeptidase = target: T2, Leucine aminopeptidase (Plasmodium falciparum 3D7, UniProt Q8IL11); assay: P. falciparum M17LAP inhibitors, primary screen, biochemical, fluorogenic H-Leu-NHMec substrate, 1536-well (AID 1619); format: functional
# T2 sequence (Q8IL11 whole entry): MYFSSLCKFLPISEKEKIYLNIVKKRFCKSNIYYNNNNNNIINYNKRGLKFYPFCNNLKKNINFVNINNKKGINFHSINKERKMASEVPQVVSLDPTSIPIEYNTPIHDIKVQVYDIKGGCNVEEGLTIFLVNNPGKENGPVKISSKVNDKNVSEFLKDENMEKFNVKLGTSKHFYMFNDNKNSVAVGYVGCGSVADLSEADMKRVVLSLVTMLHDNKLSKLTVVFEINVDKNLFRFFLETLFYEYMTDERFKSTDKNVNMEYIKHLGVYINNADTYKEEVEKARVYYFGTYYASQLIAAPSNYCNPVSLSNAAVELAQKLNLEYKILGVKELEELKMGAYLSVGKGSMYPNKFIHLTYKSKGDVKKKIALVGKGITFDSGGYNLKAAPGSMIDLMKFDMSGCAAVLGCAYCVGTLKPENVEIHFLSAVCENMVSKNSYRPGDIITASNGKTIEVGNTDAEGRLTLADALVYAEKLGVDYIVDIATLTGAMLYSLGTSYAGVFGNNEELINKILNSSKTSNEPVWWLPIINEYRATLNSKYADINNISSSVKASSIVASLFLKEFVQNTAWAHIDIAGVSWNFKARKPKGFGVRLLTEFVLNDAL
# [2] = target: Alkaline phosphatase, placental type (Homo sapiens, UniProt P05187); assay: human placental alkaline phosphatase inhibition – biochemical, luminescence, confirmation (AID 1512); format: functional
# Chain of Alkaline phosphatase, placental type (P05187 whole entry): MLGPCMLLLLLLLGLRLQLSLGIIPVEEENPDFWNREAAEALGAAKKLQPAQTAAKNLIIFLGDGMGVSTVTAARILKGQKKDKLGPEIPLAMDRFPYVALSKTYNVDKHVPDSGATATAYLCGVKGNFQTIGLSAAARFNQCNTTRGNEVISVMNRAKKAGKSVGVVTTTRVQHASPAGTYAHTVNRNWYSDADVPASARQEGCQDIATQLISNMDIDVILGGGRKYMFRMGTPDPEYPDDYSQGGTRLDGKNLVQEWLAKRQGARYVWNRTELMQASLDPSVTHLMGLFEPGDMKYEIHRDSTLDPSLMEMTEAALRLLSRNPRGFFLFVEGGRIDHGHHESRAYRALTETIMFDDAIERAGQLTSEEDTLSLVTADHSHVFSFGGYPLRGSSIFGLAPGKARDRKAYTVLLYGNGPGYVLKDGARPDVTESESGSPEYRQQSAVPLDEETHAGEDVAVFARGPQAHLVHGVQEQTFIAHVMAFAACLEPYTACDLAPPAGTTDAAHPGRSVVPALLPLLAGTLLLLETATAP
# [3] = target: T3, Alkaline phosphatase, tissue-nonspecific isozyme (Homo sapiens, UniProt P05186); assay: potency against alkaline phosphatase TNAP – biochemical, luminescent, dose response, SAR follow-up (AID 1056)
# T3 sequence (P05186 whole entry): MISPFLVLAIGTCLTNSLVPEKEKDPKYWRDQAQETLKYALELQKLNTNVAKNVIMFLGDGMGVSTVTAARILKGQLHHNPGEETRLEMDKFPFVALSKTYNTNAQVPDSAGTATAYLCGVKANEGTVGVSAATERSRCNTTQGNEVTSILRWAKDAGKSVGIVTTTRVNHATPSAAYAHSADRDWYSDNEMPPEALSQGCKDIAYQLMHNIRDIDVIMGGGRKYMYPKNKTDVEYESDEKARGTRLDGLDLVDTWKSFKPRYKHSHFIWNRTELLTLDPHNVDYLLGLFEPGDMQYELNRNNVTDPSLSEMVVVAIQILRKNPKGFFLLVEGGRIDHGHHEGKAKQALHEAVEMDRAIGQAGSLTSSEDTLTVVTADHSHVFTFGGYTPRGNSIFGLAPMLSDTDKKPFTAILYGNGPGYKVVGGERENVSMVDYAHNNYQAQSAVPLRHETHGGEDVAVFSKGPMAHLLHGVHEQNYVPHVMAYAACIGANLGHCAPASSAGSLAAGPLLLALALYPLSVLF
# [4] = target: T4, Bifunctional protein GlmU (Mycobacterium tuberculosis, UniProt P9WMN3); assay: Inhibitors of Mycobacterial Glucosamine-1-phosphate acetyl transferase (GlmU). Secondary screen.; set-up: species or system Mycobacterium tuberculosis H37Rv
# T4 sequence (P9WMN3 whole entry): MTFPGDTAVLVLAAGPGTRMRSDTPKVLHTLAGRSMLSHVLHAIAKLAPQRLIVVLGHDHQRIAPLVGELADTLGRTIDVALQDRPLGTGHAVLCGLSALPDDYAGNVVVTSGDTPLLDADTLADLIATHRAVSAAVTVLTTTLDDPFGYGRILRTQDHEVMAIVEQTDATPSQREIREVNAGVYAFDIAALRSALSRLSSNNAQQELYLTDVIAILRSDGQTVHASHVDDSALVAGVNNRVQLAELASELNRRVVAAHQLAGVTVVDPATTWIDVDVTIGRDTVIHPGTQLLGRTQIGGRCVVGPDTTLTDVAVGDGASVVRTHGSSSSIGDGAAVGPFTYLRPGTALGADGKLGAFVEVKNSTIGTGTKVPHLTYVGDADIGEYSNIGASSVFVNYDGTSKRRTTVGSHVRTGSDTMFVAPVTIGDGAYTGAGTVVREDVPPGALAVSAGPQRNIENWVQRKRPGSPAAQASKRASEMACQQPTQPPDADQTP
# [5] = target: DNA dC->dU-editing enzyme APOBEC-3A (Homo sapiens, UniProt P31941); assay: Dose Response confirmation of small molecule APOBEC3A DNA Deaminase Inhibitors via a fluorescence-based single-stranded DNA deaminase assay. [Related pubchem assays (depositor defined):AID493011, AID493024]; format: functional
# Chain of DNA dC->dU-editing enzyme APOBEC-3A (P31941 whole entry): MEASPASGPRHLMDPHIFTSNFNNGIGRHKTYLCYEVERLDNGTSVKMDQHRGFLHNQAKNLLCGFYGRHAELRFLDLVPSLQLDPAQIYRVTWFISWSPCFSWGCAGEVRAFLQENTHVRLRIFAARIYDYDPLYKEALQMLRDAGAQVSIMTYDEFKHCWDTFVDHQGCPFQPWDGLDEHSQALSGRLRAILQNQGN
# [6] = target: DNA dC->dU-editing enzyme APOBEC-3G (Homo sapiens, UniProt Q9HC16); format: functional;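 note: Dose-response counterscreen measuring inhibition of APOBEC3G DNA deaminase activity, run while confirming APOBEC3A inhibitors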
# Chain of DNA dC->dU-editing enzyme APOBEC-3G (Q9HC16 whole entry): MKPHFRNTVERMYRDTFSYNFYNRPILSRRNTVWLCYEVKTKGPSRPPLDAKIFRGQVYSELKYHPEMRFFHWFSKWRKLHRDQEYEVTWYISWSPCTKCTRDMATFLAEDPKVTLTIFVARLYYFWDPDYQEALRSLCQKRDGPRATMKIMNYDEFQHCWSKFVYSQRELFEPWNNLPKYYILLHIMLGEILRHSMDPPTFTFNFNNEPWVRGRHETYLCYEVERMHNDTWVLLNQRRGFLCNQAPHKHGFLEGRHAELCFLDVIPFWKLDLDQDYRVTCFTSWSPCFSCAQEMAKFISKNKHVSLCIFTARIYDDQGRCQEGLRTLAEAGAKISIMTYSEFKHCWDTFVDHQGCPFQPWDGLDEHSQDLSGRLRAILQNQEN
# Mucolipin-3 = target: T5, Mucolipin-3 (Homo sapiens, UniProt Q8TDD5); assay: Fluorescence counterscreen assay for […] agonists: dose response cell-based high-throughput screening assay to identify agonists of the transient receptor potential channel ML3 (TRPML3). [Related pubchem assays: 1424, 1448 ]; format: functional
# T5 sequence (Q8TDD5 whole entry): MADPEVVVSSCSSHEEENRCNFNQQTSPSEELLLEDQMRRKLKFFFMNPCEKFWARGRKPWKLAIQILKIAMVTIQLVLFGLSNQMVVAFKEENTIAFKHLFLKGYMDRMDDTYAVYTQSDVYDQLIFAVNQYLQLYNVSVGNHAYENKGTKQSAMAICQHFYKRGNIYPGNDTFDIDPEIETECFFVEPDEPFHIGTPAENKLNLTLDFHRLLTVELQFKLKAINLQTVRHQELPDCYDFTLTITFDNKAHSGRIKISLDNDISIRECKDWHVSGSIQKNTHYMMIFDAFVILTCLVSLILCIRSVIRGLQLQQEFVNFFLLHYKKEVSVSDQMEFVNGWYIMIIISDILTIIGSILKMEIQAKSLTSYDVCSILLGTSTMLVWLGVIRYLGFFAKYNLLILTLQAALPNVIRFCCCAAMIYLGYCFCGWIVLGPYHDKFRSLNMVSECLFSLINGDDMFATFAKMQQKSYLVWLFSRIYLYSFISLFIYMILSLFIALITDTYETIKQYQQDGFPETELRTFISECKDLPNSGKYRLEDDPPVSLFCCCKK
# [7] = target: T6, Corticotropin-releasing factor receptor 2/Corticotropin-releasing factor-binding protein (Homo sapiens, UniProt P24387+Q13324); assay: activators of CRF receptor 2 with binding protein – uHTS hits, confirmation (AID 602473); format: functional; details: read-out: EC50_Mean
# T6 sequence (Q13324 whole entry): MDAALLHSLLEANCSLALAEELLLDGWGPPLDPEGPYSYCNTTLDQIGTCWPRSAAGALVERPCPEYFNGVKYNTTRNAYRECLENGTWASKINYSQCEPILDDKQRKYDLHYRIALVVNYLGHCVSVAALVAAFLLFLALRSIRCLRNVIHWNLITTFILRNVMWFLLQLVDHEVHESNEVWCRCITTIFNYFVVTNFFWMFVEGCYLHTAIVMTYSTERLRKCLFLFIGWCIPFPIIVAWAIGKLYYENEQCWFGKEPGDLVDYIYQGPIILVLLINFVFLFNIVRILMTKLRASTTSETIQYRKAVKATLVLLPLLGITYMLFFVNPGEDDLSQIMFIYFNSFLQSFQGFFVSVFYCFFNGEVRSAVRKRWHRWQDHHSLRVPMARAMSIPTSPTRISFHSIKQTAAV
# T6 sequence (P24387 whole entry): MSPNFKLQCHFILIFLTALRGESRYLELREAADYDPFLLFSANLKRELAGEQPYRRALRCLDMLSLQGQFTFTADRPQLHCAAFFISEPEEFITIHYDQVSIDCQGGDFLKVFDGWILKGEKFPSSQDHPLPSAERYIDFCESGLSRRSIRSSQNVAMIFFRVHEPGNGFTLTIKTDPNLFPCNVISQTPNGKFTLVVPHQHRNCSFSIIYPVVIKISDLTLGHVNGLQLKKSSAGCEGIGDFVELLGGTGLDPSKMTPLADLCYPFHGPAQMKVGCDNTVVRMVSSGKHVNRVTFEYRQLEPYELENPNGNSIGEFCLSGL
# Ion channel NompC = Ion channel NompC (Danio rerio, UniProt Q7T1G6); assay: Dose response cell-based high-throughput screening assay for agonists of the transient receptor potential channel N1 (TRPN1). [Related pubchem assays (depositor defined):AID1424, AID1448]; format: functional
# Chain of Ion channel NompC (Q7T1G6 whole entry): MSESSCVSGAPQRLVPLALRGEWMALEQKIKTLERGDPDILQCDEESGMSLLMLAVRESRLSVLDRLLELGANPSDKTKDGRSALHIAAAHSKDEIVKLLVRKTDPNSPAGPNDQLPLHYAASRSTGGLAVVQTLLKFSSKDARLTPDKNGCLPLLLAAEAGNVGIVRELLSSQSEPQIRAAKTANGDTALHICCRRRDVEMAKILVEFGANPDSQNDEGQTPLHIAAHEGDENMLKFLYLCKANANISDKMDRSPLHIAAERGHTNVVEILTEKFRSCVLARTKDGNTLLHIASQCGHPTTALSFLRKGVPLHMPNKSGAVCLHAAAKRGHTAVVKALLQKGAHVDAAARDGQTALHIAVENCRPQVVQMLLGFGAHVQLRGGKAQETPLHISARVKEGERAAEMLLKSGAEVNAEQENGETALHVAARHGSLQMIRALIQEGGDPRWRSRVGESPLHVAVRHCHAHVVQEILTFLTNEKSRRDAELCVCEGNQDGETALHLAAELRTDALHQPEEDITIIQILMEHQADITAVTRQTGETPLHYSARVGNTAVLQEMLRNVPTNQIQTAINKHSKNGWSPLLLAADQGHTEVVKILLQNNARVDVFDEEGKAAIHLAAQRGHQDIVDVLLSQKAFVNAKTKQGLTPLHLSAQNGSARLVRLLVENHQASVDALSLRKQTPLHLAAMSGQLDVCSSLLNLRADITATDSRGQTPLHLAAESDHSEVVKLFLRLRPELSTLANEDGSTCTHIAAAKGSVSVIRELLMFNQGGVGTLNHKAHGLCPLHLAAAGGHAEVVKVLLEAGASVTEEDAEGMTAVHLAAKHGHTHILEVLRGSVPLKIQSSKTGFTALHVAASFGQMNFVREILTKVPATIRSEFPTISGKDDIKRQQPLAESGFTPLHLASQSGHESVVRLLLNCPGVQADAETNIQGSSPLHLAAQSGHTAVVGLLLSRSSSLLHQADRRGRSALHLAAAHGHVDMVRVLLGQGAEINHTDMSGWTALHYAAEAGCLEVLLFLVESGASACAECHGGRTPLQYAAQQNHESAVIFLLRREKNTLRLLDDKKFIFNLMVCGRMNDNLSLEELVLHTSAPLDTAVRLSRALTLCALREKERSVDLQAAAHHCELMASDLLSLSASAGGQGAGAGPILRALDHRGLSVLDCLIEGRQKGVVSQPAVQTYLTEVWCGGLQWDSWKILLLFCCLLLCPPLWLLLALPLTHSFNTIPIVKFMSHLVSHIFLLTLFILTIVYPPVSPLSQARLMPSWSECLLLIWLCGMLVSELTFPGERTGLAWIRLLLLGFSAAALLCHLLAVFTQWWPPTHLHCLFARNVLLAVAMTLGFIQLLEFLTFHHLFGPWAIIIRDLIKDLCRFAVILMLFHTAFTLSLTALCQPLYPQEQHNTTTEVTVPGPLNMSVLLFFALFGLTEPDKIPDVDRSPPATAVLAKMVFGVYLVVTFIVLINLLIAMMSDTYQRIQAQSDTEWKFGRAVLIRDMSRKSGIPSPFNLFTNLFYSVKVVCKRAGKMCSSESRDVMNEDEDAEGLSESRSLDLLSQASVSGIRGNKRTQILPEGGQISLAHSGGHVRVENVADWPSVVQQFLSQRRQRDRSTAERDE
# HEK293 [8] = assay: cells; details: Homo sapiens
# HEK293 [9] = assay: cells; details: Homo sapiens; remark: listed apart in the source
# [10] = viability of PTEN-deleted HCT116 cells – cell-based, HCT116 PTEN knockout, dose response (AID 1047); format: functional;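 note: HCT116 colon tumor cells with PTEN knocked out; cells exposed to compound for 60 hours before readout; potency for loss of cell viability measured by luminescence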
# [11] = viability of HCT116 lacking mutant beta-catenin – cell-based, human colon tumor, dose response (AID 1045); format: functional;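 note: HCT116 colon tumor cells with beta catenin knocked out; cells exposed to compound for 60 hours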
# Cytochrome P450 2C19 = Cytochrome P450 2C19 (Homo sapiens, UniProt P33261); assay: Cytochrome panel assay with activity outcomes. Panel member name: p450-cyp2c19 Compounds with AC50 equal or less than 10 uM are considered active; format: functional; details: read-out: AC50
# Chain of Cytochrome P450 2C19 (P33261 whole entry): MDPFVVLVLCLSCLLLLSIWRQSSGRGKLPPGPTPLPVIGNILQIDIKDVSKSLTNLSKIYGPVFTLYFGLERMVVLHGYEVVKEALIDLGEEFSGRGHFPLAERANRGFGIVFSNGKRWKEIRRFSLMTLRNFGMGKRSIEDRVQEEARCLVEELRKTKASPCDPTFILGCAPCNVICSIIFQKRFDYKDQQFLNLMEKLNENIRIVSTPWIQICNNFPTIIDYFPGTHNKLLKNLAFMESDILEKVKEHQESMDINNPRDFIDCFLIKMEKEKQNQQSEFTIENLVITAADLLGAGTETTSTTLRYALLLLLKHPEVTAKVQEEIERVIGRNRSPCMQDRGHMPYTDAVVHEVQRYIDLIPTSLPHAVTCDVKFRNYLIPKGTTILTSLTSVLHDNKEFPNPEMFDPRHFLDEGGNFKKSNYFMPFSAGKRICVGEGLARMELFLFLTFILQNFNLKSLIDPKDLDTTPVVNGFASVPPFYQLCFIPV
compound,measurement,setting,value
CN1C(=O)N(C)C(=O)C2(Sc3ccccc3C2=O)C1=O,AC50,[1],11.2 µM (active)
CCn1c(SCC(=O)c2ccc(O)c(O)c2)nnc1-c1ccc(C)cc1,IC50,Large T antigen,10.4 µM (active)
same,IC50,Leucine aminopeptidase,17.9 µM (active)
same,IC50,[2],11.8 µM (active)
same,IC50,[3],> 100 µM (inactive)
Cc1cccc(N2C(=O)NC(=O)/C(=C/c3ccc([N+](=O)[O-])o3)C2=O)c1,AC50,[1],5.37 µM (active)
same,IC50,[4],149 µM (active)
COc1ccccc1N(CC(=O)Nc1ccc2c(c1)OCO2)S(=O)(=O)c1ccccc1,IC50,[5],2.01 µM (active)
same,IC50,[6],1.81 µM (active)
NC(S)=NNC(=O)C12CC3CC(CC(C3)C1)C2,EC50,Mucolipin-3,2.76 µM (active)
same,EC50,[7],3.53 µM (active)
same,EC50,Ion channel NompC,1.47 µM (active)
N#Cc1c(N)n(C2CCCCC2)c2nc3ccccc3nc12,EC50,HEK293 [8],> 59.6 µM (inactive)
same,EC50,HEK293 [9],> 59.6 µM (inactive)
O=C(Nc1ccccc1)Nc1ccc(F)c([N+](=O)[O-])c1,EC50,Mucolipin-3,> 29.9 µM (not active)
same,EC50,[10],15.2 µM (active)
same,EC50,Ion channel NompC,> 29.9 µM (inactive)
same,EC50,[11],18.1 µM (active)
Cc1ccc(C)c(NC(=O)c2nc[nH]n2)c1,IC50,[5],11.6 µM (active)
same,AC50,Cytochrome P450 2C19,39.8 µM (inconclusive)
same,IC50,[6],14.1 µM (active)
COc1ccc(Br)cc1CN(C)C(=O)C1=CC=CN2CCS(=O)(=O)N=C12,IC50,[5],20.2 µM (active)
same,IC50,[6],48.3 µM (active)
CCCCN1C(=O)/C(=N\Nc2ccccc2C)c2ccccc21,IC50,[2],74.4 µM (active)
same,IC50,[3],78 µM (active)
CCCCCn1/c(=N/C(=O)c2ccco2)c(C(=O)OCC)cc2c(=O)n3ccccc3nc21,EC50,HEK293 [8],> 59.6 µM (inactive)
same,EC50,HEK293 [9],> 59.6 µM (inactive)
